One test concerns Lac5. The conditions noted are these: 100 mM acetate, 2.5 mM copper sulfate, O2; listed optimum pH 4.0, 50 °C.
For a further test, the system named is Lac9. The conditions noted are these: 100 mM acetate, 2.5 mM copper sulfate, O2; listed optimum pH 4.8, 55 °C.
The test system of a further test is T1, Lac5-6.
T1 construct: gene Lac5 (GenBank PP987286)
The conditions noted are these: 100 mM acetate, 2.5 mM copper sulfate, O2; listed optimum pH 4.0, 55 °C.

In a further test the test system is Lac1. The conditions noted are these: 100 mM acetate, 2.5 mM copper sulfate, O2; listed optimum pH 5.0, 55 °C.
A further test relates to Lac4. The conditions noted are these: 100 mM acetate, 2.5 mM copper sulfate, O2; listed optimum pH 4.0, 55 °C.
In a further test the test system is Lac3. The conditions noted are these: 100 mM acetate, 2.5 mM copper sulfate, O2; listed optimum pH 4.6, 60 °C.

From PMC12226424, “Enhanced discovery of bacterial laccase‐like multicopper oxidase through computer simulation and metagenomic analysis of industrial wastewater” (FEBS Open Bio, 2025) come the findings set out here.

For orientation: Km means the concentration of substrate that gives half-maximal velocity.

`CCn1c(=NN=c2sc3cc(S(=O)(=O)O)ccc3n2CC)sc2cc(S(=O)(=O)O)ccc21` [ABTS, 2,2′‐azinobis(3‑ethylbenzo‐6‑thiazolinesulfonic acid)]: the Km in the test with Lac5 turned out to be 63 µM; in the test with Lac9 it was 101 µM; in the test with Lac5-6, 55 µM; in the test on Lac1, 112 µM; in the test with Lac4, 426 µM; with Lac3, 99 µM.
